Test results: patent US20230233425A1, “USE OF VOLATILE COMPOSITIONS TO LIMIT OR ELIMINATE THE PERCEPTION OF MALODOR” (Firmenich SA, priority 2017, published 2023)
Several values for one entry are separate records, joined by “and”; a condition that tells them apart may be missing. Equal entries are not always repeated. Structures can show the parent of a compound that is named as a salt. Where two headings read alike, the source gives them in different places.

How the values were obtained:
[1] = tested on: geonol receptors Olfr339, Olfr1487, Olfr1A1, OR11A1, Olfr96; assay: Antagonists of geonol receptors (Example 11); type: cell-based, mouse and human; parameters: Inhibition(%): concentration or dose not given beside the values; settings: Table 18
[2] = molecular target: T1, OR51E1 olfactory receptor (Homo sapiens, UniProt Q8TCB6); assay: Butyric acid olfactory receptor antagonist cell-based dose-response vs butyric acid EC80; settings: for Emax: read-out: Inhibition (%)
T1 construct: expressed in transfected cells
T1 sequence (Q8TCB6 1-318): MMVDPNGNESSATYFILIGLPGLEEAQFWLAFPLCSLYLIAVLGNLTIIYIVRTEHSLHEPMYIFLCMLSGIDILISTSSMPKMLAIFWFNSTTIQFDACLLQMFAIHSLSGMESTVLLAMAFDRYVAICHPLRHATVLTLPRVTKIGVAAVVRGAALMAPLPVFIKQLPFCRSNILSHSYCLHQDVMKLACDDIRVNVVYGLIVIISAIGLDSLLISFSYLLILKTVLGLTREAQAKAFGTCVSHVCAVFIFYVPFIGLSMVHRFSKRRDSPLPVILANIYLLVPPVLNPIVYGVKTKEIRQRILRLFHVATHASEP

Compound | IC50 ([2]; Table 20, spiro analogues) [µM] | Emax ([2]; Table 20, spiro analogues) [%] | further results
C=C1C2CCC(C2)C1(C)C (stereo not shown) [2,2-dimethyl-3-methylidenebicyclo[2.2.1]heptane] |  |  | IC50 [1]: 219 µM; Inhibition(%) [1]: 36%
CCOC(=O)c1ccccc1C(=O)OCC [diethyl benzene-1,2-dicarboxylate] |  |  | IC50 [1]: 1580 µM; Inhibition(%) [1]: 32%
CC(=O)OC(C)C1(C)CC(C)C23CCC(CC12)C3 (stereo not shown) |  |  | IC50 ([2]; Table 21): 54.8 µM; Inhibition(%) ([2]; Table 21): 34%
CC(=O)OC1C(C)(C)CCCC12CC=C(C)CC2C (stereo not shown) [(3,5,10,10-tetramethylspiro[5.5]undec-2-en-11-yl) acetate] | 71.4 | 104 | 
CC(=NO)C1C(C)C(C)C23CCC(CC12)C3 (stereo not shown) |  |  | IC50 ([2]; Table 21): 76.6 µM; Emax ([2]; Table 21): 19%
CC(=O)OC1CC2CCC1(C)C2(C)C (stereo not shown) |  |  | IC50 [1]: 660 µM; Inhibition(%) [1]: 84%
CC(C)CC(=O)OCc1ccccc1 [benzyl 3-methylbutanoate] |  |  | IC50 [1]: 220 µM; Inhibition(%) [1]: 41%
CC1=CC(C)C2(CCCC(C)(C)C2O)C1 (stereo not shown) [2,4,9,9-tetramethylspiro[4.5]dec-2-en-10-ol] | 81.6 | 22 | 
CC1C=CCC12CCCC(C)(C)C2=O (stereo not shown) [4,9,9-trimethylspiro[4.5]dec-2-en-10-one] | 268 | 102 | 
CC1=CCC2(CCCCC2O)C(C(C)C)C1 (stereo not shown) [3-methyl-5-propan-2-ylspiro[5.5]undec-2-en-11-ol] | 366 | 144 | 
C[C@@H]1CCCCCCCCCCCCC(=O)C1 [(−)-(3R)-3-methyl-1-cyclopentadecanone] |  |  | IC50 ([2]; butyric acid at EC80, Table 5): 27.3 µM
CCOCOC1CCCCCCCCCCC1 [(ethoxymethoxy)cyclododecane] |  |  | IC50 ([2]; butyric acid at EC80, Table 5): 69.2 µM
CC(=O)OC1C(C)(C)CCC12CC=CC2 (stereo not shown) [(8,8-dimethylspiro[4.4]non-2-en-9-yl) acetate] | 488 | 107 | 
CC1C=CCC(C)C1C(O)C(C)(C)C (stereo not shown) [1-(2,6-dimethylcyclohex-3-en-1-yl)-2,2-dimethylpropan-1-ol] | 321 | 31 | 
CC1C(C)C23CCC(CC2C1(C)C=O)C3 (stereo not shown) |  |  | IC50 ([2]; Table 21): 270 µM; Inhibition(%) ([2]; Table 21): 28%
C=C1C(C)(C)CCCC12CC1(C)OC1(C)C2 (stereo not shown) [1,1′,1′,5-tetramethyl-2′-methylidenespiro[6-oxabicyclo[3.1.0]hexane-3,3′-cyclohexane]] | 75.7 | 37 | 
C[C@H]1CCC[C@]2(CCCC[C@@H]2C)[C@@H]1O | 76.9 | 54 | 
CC(=O)OC1C(C)(C)CCCC12CC(C)=CC2C (stereo not shown) [(2,4,9,9-tetramethylspiro[4.5]dec-2-en-10-yl) acetate] | 34.8 | 131 | 
CC1=CCC(CCC(C)C(C)O)C1(C)C (stereo not shown) [3-methyl-5-(2,2,3-trimethylcyclopent-3-en-1-yl)pentan-2-ol] |  |  | IC50 [1]: 28.8 µM; Inhibition(%) [1]: 32%
COC1C(C)(C)CCC12CCCC2 (stereo not shown) [4-methoxy-3,3-dimethylspiro[4.4]nonane] | 337 | 105 | 
CC(=O)OC1C(C)(C)CCCC12CC=CC2 (stereo not shown) [(9,9-dimethylspiro[4.5]dec-2-en-10-yl) acetate] | 90.3 | 32 | 
C/C=C/C(=O)C1=C(C)CCCC1(C)C [(2E)-1-(2,6,6-trimethyl-1-cyclohexen-1-yl)-2-buten-1-one] |  |  | IC50 ([2]; butyric acid at EC80, Table 5): 184 µM

Compound | IC50 ([2]; Table 20, spiro analogues) [µM] | Emax ([2]; Table 20, spiro analogues) [%] | further results
CC1(CO)CC1CC1CC2CC2(C)C1(C)C (stereo not shown) |  |  | IC50 [1]: 21.3 µM; Inhibition(%) [1]: 34%
COC(=O)CCCCCCCC/C=C/C=O [methyl (10E)-12-oxo-10-dodecenoate] |  |  | Inhibition(%) [1]: 86%
COC1C(C)(C)CCC12CC=CC2 (stereo not shown) [9-methoxy-8,8-dimethylspiro[4.4]non-2-ene] | 238 | 100 | 
CC(=O)OCC1(C)C(C)C(C)C23CCC(CC12)C3 (stereo not shown) |  |  | IC50 ([2]; Table 21): 60.8 µM; Inhibition(%) ([2]; Table 21): 27%
CC1=CCC2C(C1)C1CC2C2(C1)OC2C (stereo not shown) |  |  | IC50 [1]: 281 µM; Inhibition(%) [1]: 45%
CCC1=CCCC(C)(C)[C@@]12C=C[C@@H](C)O2 |  |  | IC50 [1]: 127 µM; Inhibition(%) [1]: 47%
methyl 1-(3-methylbut-2-enyl)cyclohex-2-ene-1-carboxylate, methyl 1-(3-methylbut-2-enyl)cyclohex-3-ene-1-carboxylate, or mixtures thereof | 577 |  | Inhibition(%) ([2]; Table 20, spiro analogues): 38%
CC(=O)[C@@]1(C)C(C)[C@H](C)[C@@]23CC[C@H](CC12)C3 (stereo partly shown) |  |  | Inhibition(%) ([2]; Table 21): 27%
4,10,10,11-tetramethylspiro[5.5]undec-2-en-11-ol; 5,10,10,11-tetramethylspiro[5.5]undec-3-en-11-ol | 47.2 |  | Inhibition(%) ([2]; Table 20, spiro analogues): 94%
CCCOC(C)OCCc1ccccc1 (stereo not shown) [2-(1-propoxyethoxy)ethylbenzene] |  |  | IC50 [1]: 190 µM; Inhibition(%) [1]: 61%
CC1CCCCC12CCCCC2O (stereo not shown) [11-methylspiro[5.5]undecan-5-ol] | 68.8 | 52 | 
CC1=C(C)CC2(CCC(C)(C)C2=O)C1 [2,3,8,8-tetramethylspiro[4.4]non-2-en-9-one] | 198 | 10 | 
CCCCCCCC1CCCC(=O)O1 (stereo not shown) [6-heptyloxan-2-one] |  |  | IC50 [1]: 197 µM; Inhibition(%) [1]: 29%
CCCCC[C@H]1CCC[C@H]1O [(1~{R},2~{S})-2-pentylcyclopentan-1-ol] |  |  | IC50 [1]: 195 µM and 147 µM
CC(CCO)CCc1ccccc1 (stereo not shown) [3-methyl-5-phenylpentan-1-ol] |  |  | IC50 [1]: 1100 µM; Inhibition(%) [1]: 37%
CC1(C)CCCC2(CC=CC2)C1=O [9,9-dimethylspiro[4.5]dec-2-en-10-one] | 135 | 23 | 
CC1(C)CCCC2(CC=CC2)C1O (stereo not shown) [9,9-dimethylspiro[4.5]dec-2-en-10-ol] | 44.1 | 91 | 
CC(=O)OC(C1C(C)CC(C)CC1C)C(C)(C)C (stereo not shown) [[2,2-dimethyl-1-(2,4,6-trimethylcyclohexyl)propyl] acetate] | 242 | 101 | 
CC(C)COC(=O)Cc1ccccc1 [2-methylpropyl 2-phenylacetate] |  |  | IC50 [1]: 141 µM; Inhibition(%) [1]: 45%
CC1C2CC(CC2C2CCCC(O)C2)C1(C)C (stereo not shown) [3-(5,5,6-trimethyl-2-bicyclo[2.2.1]heptanyl)cyclohexan-1-ol] |  |  | IC50 [1]: 100 µM; Inhibition(%) [1]: 29%
CCCCCCCC=CC=O [dec-2-enal] |  |  | IC50 [1]: 262 µM; Inhibition(%) [1]: 40%
CC(=O)OC(C1CCCCC1C)C(C)(C)C (racemic) [(1RS)-2,2-dimethyl-1-[(1SR,2SR)-2-methylcyclohexyl]propyl acetate] |  |  | Inhibition(%) ([2]; Table 20, spiro analogues): 86%

Compound | IC50 ([2]; Table 20, spiro analogues) [µM] | Emax ([2]; Table 20, spiro analogues) [%] | further results
CC(=O)OC(C1C(C)C=C(C)CC1C)C(C)(C)C (stereo not shown) [[2,2-dimethyl-1-(2,4,6-trimethylcyclohex-3-en-1-yl)propyl] acetate] | 52.6 | 89 | 
CC1=CC(C)C2(CCCC(C)(C)C2=O)C1 (stereo not shown) [2,4,9,9-tetramethylspiro[4.5]dec-2-en-10-one] | 110 | 63 | 
CC(=NO)C1(C)C(C)C(C)[C@]23CC[C@H](CC12)C3 (stereo partly shown) |  |  | Inhibition(%) ([2]; Table 21): 81%
CC1CC2(CCCC(C)(C)C2O)CC1C (stereo not shown) [2,3,9,9-tetramethylspiro[4.5]decan-10-ol] | 120 | 12 | 
C=C(C)CC1(CC(=C)C)CCC(C)(C)C1=O [2,2-dimethyl-5,5-bis(2-methylprop-2-enyl)cyclopentan-1-one] | 51.7 | 82 | 
3,10,10-trimethylspiro[5.5]undec-3-en-11-ol; 4,10,10-trimethylspiro[5.5]undec-3-en-11-ol | > 600 |  | Inhibition(%) ([2]; Table 20, spiro analogues): 121%
CC(=O)OC1C(C)(C)CCCC12CC=CC2C (stereo not shown) [(4,9,9-trimethylspiro[4.5]dec-2-en-10-yl) acetate] | 48.5 | 106 | 
C=C(C)CC1(CC(=C)C)CCC(C)(C)C1O (stereo not shown) [2,2-dimethyl-5,5-bis(2-methylprop-2-enyl)cyclopentan-1-ol] | 35.1 | 119 | 
C=CCC1(C(C)C=C)CCCC(C)(C)C1=O (stereo not shown) [2-but-3-en-2-yl-6,6-dimethyl-2-prop-2-enylcyclohexan-1-one] | 76.4 | 115 | 
CC(=O)C1(C)CC(C)C23CCC(CC12)C3 (stereo not shown) |  |  | IC50 ([2]; Table 21): 60.5 µM; Inhibition(%) ([2]; Table 21): 26%
CC1=C(C)CC2(CCCC(C)(C)C2OC=O)C1 (stereo not shown) [(2,3,9,9-tetramethylspiro[4.5]dec-2-en-10-yl) formate] | 25.9 | 69 | 
C=C(C)CC1(CC(=C)C)CCCC(C)(C)C1O (stereo not shown) [2,2-dimethyl-6,6-bis(2-methylprop-2-enyl)cyclohexan-1-ol] | 125 | 110 | 
COC1C(C)(C)CCCC12CC=CC2 (stereo not shown) [10-methoxy-9,9-dimethylspiro[4.5]dec-2-ene] | 120 | 33 | 
COC1CCCCCCCCCCC1 [Methoxycyclododecane] |  |  | IC50 ([2]; butyric acid at EC80, Table 5): 84.1 µM
CC1CC=CCC12CCCC(C)(C)C2OC=O (stereo not shown) [(5,10,10-trimethylspiro[5.5]undec-2-en-11-yl) formate] | 44.4 | 129 | 
CC(=O)OC(C)C1CC(C)C23CCC(CC12)C3 (stereo not shown) |  |  | IC50 ([2]; Table 21): 97 µM; Inhibition(%) ([2]; Table 21): 23%
CC1CC(C)(C=NO)C2C[C@H]3CC[C@]12C3 (stereo partly shown) |  |  | Inhibition(%) ([2]; Table 21): 38%
CC(=O)OC1C(C)(C)CCCC12CC(C)(C)C(C)(C)C2 (stereo not shown) [(2,2,3,3,9,9-hexamethylspiro[4.5]decan-10-yl) acetate] | 425 | 39 | 
C=CCC1(OC)C(C)CCCC1C (stereo not shown) [1-methoxy-2,6-dimethyl-1-prop-2-enylcyclohexane] | 100 | 61 | 
2,4,8-trimethylspiro[5.5]undec-3-en-11-ol; 2,9,11-trimethylspiro[5.5]undec-9-en-5-ol | 117 |  | Inhibition(%) ([2]; Table 20, spiro analogues): 70%
